From paper PMC2813745, “A novel inhibitor of the PI3K/Akt pathway based on the structure of inositol 1,3,4,5,6-pentakisphosphate” (British Journal of Cancer, 2010)

Legend:
SRC = SRC (Homo sapiens, UniProt P12931); experiment: SelectScreen kinase profiling: SRC; type: biochemical; details: [ATP] 50 µM
Method: (§1) Effect of the indicated compounds on the activity of various kinases was assessed by SelectScreen Kinase Profiling Service (Invitrogen-Life Technologies, Paisley, UK). Assays were performed using 1 μM of the tested compounds and ATP concentration as indicated in the corresponding tables. In the case of […] a screen using 10 μM of the compound was also carried out, as indicated in the corresponding table.

BRAF = BRAF (Homo sapiens, UniProt P15056); experiment: SelectScreen kinase profiling: BRAF; type: biochemical; details: [ATP] 100 µM
Method: as §1

JAK1 = JAK1 (Homo sapiens, UniProt P23458); experiment: SelectScreen kinase profiling: JAK1; type: biochemical; details: [ATP] 75 µM
Method: as §1

CHEK2 (CHK2) = CHEK2 (CHK2) (Homo sapiens, UniProt O96017); experiment: SelectScreen kinase profiling: CHEK2; type: biochemical; details: [ATP] 75 µM
Method: as §1

Water solubility = type: physicochemical
AURKA (Aurora A) = AURKA (Aurora A) (Homo sapiens, UniProt O14965); experiment: SelectScreen kinase profiling: AURKA; type: biochemical; details: 1 µM compound; [ATP] 10 µM
Chain of AURKA (Aurora A) (O14965 whole entry): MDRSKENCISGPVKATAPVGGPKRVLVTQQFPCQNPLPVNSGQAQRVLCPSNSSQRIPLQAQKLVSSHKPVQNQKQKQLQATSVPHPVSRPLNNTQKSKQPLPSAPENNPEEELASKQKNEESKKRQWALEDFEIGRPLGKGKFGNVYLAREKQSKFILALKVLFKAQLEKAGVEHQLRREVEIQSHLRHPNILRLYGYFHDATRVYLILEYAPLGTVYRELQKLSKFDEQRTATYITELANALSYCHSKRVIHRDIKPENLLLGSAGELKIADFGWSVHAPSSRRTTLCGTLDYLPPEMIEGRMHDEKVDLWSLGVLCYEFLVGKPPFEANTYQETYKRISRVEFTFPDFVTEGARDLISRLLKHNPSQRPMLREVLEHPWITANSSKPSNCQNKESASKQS
Method: as §1

PC3 = experiment: SRB assay, PC3; type: cell-based, human; details: PC3, 72 h
Method: Cells seeded in a 24-well plate were treated with the indicated compounds in serum free DMEM or DMEM containing 0.5% FBS (PC3). After 72 h, the number of surviving cells was assessed by manual cell counting or by using the cell counter CDA-500 (Sysmex, Milton Keynes, UK). Alternatively, after 48 h, the number of apoptotic cells was assessed by acridine orange/ethidium bromide assay as described ([Piccolo et al, 2004]; [Maffucci et al, 2005]). SRB test was carried out in SKOV-3 and PC3 seeded in 96-well plate (3800 cells per well or 5800 cells per well, respectively) after 72 h of treatment as described ([Cappella et al, 2001]).
The number of surviving cells was assessed by cell counting. Data are mean±s.e. of n=3 (A), n=6 (B), n=3 (C) and n=4 (D) independent experiments carried out in duplicate. ^*=P<0.01; ^**=P<0.05. […] After 72 h the number of surviving cells was assessed by SRB assay. Data are mean±s.e. of n=2 independent experiments.
Data are mean±s.e. of n=4 independent experiments carried out in duplicate. […] Data are mean±s.e. of n=5 independent experiments carried out in duplicate. […] Data are mean±s.e. of n=6 independent experiments carried out in duplicate. […] Data are mean±s.e. of n=2 independent experiments carried out in duplicate. In all cases (A–D), cells were treated for 72 h and the number of surviving cells was assessed by cell counting. […] In all cases (E, F), cells were treated for 72 h and the number of surviving cells was assessed by SRB assay and data are mean±s.e. of two experiments carried out in quadruplicate.

CSNK2A2 (CK2α2) = CSNK2A2 (CK2α2) (Homo sapiens, UniProt P19784); experiment: SelectScreen kinase profiling: CSNK2A2; type: biochemical; details: [ATP] 50 µM
Method: as §1

CHEK1 (CHK1) = CHEK1 (CHK1) (Homo sapiens, UniProt O14757); experiment: SelectScreen kinase profiling: CHEK1; type: biochemical; details: [ATP] 50 µM
Chain of CHEK1 (CHK1) (O14757 whole entry): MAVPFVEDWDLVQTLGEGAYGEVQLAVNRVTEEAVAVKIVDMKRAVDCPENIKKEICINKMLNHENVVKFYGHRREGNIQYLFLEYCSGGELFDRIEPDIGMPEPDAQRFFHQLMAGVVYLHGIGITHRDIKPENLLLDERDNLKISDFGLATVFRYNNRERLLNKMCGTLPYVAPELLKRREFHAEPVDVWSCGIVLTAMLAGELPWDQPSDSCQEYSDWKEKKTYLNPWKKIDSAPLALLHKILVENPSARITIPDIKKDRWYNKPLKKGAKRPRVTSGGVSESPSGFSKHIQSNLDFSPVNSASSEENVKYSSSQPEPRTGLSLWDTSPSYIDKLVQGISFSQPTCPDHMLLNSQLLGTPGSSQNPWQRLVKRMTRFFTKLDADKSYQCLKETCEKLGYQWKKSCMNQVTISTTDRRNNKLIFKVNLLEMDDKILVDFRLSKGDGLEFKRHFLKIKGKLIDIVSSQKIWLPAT
Method: as §1

GSK3B (GSK3β) = GSK3B (GSK3β) (Homo sapiens, UniProt P49841); experiment: SelectScreen kinase profiling: GSK3B; type: biochemical; details: [ATP] 10 µM
Chain of GSK3B (GSK3β) (P49841 whole entry): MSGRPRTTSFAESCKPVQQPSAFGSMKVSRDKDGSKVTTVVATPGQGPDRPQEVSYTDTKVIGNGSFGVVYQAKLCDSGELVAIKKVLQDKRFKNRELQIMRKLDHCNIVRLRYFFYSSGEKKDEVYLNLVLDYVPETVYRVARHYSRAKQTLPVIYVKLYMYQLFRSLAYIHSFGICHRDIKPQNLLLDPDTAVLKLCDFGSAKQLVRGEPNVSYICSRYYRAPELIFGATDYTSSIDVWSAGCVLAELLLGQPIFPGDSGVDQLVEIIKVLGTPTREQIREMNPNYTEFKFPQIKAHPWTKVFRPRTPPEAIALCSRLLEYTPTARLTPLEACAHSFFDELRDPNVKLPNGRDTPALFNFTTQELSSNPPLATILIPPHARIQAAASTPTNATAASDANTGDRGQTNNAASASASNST
Method: as §1

PIK3CG (p110γ) = PIK3CG (p110γ) (Homo sapiens, UniProt P48736); experiment: SelectScreen kinase profiling: PIK3CG; type: biochemical; details: [ATP] 25 µM
Method: as §1

CDC42 BPA (MRCKA) = CDC42 BPA (MRCKA) (Homo sapiens, UniProt Q5VT25); experiment: SelectScreen kinase profiling: CDC42 BPA; type: biochemical; details: [ATP] 5 µM
Method: as §1

AKT3 (PKBγ) = AKT3 (PKBγ) (Homo sapiens, UniProt Q9Y243); experiment: SelectScreen kinase profiling: AKT3; type: biochemical; details: [ATP] 100 µM
Chain of AKT3 (PKBγ) (Q9Y243 whole entry): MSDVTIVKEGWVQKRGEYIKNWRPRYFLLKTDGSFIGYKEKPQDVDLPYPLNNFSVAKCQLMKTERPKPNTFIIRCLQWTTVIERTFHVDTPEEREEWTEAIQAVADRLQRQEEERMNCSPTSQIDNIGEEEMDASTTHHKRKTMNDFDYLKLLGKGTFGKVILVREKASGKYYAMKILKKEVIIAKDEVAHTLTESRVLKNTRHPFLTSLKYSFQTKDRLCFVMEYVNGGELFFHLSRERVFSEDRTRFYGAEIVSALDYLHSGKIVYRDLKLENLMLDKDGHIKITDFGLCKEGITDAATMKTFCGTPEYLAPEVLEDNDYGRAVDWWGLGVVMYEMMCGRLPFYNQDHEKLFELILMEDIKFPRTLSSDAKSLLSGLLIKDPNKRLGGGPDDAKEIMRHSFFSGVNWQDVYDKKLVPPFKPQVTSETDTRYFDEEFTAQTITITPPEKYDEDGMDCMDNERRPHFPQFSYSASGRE
Method: as §1

CSNK1A1 (CK1α1) = CSNK1A1 (CK1α1) (Homo sapiens, UniProt P48729); experiment: SelectScreen kinase profiling: CSNK1A1; type: biochemical; details: [ATP] 5 µM
Method: as §1

MAP2K1 (MEK1) = MAP2K1 (MEK1) (Homo sapiens, UniProt Q02750); experiment: SelectScreen kinase profiling: MAP2K1; type: biochemical; details: [ATP] 100 µM
Chain of MAP2K1 (MEK1) (Q02750 whole entry): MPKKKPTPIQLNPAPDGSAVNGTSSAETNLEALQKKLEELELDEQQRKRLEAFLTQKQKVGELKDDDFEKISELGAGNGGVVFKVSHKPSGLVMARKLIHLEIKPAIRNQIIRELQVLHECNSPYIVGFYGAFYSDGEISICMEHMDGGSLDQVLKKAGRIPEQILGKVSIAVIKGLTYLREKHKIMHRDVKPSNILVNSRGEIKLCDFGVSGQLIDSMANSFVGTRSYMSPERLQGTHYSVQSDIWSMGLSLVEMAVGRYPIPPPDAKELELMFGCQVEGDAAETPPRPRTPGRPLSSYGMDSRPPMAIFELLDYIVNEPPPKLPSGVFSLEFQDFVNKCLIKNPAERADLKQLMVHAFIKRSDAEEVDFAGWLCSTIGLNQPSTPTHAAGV
Method: as §1

PRKCA (PKCα) = PRKCA (PKCα) (Homo sapiens, UniProt P17252); experiment: SelectScreen kinase profiling: PRKCA; type: biochemical; details: [ATP] 25 µM
Method: as §1

PI4KB (PI4Kβ) = PI4KB (PI4Kβ) (Homo sapiens, UniProt Q9UBF8); experiment: SelectScreen kinase profiling: PI4KB; type: biochemical; details: [ATP] 5 µM
Method: as §1

MAPK9 (JNK2) = MAPK9 (JNK2) (Homo sapiens, UniProt P45984); experiment: SelectScreen kinase profiling: MAPK9; type: biochemical; details: [ATP] 100 µM
Method: as §1

AMPK A1/B1/G1 = AMPK A1/B1/G1 (Homo sapiens, UniProt Q13131); experiment: SelectScreen kinase profiling: AMPK A1/B1/G1; type: biochemical; details: 1 µM compound; [ATP] 50 µM
Chain of AMPK A1/B1/G1 (Q13131 whole entry): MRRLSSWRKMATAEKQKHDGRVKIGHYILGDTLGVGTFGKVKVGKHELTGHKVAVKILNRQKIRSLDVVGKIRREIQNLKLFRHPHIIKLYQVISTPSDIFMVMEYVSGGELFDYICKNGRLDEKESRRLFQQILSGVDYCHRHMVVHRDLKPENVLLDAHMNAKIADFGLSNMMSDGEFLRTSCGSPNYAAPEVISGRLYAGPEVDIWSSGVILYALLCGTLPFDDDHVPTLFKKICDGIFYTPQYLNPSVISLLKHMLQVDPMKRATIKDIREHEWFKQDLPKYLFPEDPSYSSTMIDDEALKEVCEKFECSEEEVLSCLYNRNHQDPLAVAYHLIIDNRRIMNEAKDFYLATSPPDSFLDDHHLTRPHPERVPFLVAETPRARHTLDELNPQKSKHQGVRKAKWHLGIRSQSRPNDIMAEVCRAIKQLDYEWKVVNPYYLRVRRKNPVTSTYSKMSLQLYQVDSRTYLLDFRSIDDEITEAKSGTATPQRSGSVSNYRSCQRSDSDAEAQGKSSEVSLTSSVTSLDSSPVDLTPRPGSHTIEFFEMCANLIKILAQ
Chain of AMPK A1/B1/G1 (Q9Y478 whole entry partner): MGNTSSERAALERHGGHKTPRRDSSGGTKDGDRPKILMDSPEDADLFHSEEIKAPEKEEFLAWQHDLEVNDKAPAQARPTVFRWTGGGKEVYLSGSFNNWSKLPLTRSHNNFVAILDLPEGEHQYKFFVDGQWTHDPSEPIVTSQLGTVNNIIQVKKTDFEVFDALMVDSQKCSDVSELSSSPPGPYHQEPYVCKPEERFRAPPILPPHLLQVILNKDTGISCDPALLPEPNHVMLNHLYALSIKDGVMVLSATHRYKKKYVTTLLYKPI
Chain of AMPK A1/B1/G1 (P54619 whole entry partner): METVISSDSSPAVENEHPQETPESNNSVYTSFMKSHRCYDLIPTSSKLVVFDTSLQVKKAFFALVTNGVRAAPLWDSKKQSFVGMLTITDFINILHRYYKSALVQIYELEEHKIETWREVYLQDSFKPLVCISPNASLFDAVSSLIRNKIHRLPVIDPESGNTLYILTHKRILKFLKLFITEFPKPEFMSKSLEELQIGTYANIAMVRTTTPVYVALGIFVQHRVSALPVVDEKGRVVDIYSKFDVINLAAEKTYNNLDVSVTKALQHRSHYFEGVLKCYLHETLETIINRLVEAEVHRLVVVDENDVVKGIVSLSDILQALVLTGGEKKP
Method: as §1

ITK = ITK (Homo sapiens, UniProt Q08881); experiment: SelectScreen kinase profiling: ITK; type: biochemical; details: [ATP] 5 µM
Method: as §1

CDK5/p25 = CDK5/p25 (Homo sapiens, UniProt Q00535); experiment: SelectScreen kinase profiling: CDK5/p25; type: biochemical; details: [ATP] 10 µM
Method: as §1

MAPK1 (ERK2) = MAPK1 (ERK2) (Homo sapiens, UniProt P28482); experiment: SelectScreen kinase profiling: MAPK1; type: biochemical; details: [ATP] 100 µM
Chain of MAPK1 (ERK2) (P28482 whole entry): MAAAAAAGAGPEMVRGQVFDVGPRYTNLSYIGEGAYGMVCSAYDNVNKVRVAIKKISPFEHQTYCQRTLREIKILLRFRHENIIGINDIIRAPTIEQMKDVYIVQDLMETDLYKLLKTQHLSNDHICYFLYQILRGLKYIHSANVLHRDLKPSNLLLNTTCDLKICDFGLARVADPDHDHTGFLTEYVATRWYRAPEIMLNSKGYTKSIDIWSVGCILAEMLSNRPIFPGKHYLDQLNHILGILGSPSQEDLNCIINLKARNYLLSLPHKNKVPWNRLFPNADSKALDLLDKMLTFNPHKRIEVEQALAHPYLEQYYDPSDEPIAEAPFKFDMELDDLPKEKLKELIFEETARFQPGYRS
Method: as §1

CDK1/cyclin B = CDK1/cyclin B (Homo sapiens, UniProt P06493); experiment: SelectScreen kinase profiling: CDK1/cyclin B; type: biochemical; details: [ATP] 25 µM
Method: as §1

Chain of SRC (P12931 whole entry): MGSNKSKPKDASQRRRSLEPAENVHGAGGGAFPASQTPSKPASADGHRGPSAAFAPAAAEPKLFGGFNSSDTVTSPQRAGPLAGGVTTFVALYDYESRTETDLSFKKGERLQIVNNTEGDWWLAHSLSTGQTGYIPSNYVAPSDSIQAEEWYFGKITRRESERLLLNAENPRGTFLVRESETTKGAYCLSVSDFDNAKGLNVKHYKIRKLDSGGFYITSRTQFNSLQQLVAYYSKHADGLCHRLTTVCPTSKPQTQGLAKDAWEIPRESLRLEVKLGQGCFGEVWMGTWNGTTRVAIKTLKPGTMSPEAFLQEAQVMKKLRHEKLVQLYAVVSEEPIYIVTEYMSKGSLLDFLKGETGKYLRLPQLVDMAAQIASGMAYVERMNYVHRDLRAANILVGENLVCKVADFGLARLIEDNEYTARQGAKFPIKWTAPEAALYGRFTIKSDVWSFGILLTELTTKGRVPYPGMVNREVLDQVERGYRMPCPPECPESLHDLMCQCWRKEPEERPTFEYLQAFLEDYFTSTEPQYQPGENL

**Q.** Which inhibition at 10 µM (SRC; 10 µM compound) does the source give for `O=P(O)(O)OC1C(O)C(OP(=O)(O)O)C(OP(=O)(O)O)C(OP(=O)(O)O)C1OP(=O)(O)O` (centres unmarked) [InsP5, inositol 1,3,4,5,6-pentakisphosphate] here?
**A.** 10%

**Q.** And the inhibition at 10 µM (BRAF; 10 µM compound)?
**A.** 10%

**Q.** And the inhibition at 10 µM (JAK1; 10 µM compound)?
**A.** -2%

**Q.** What about the inhibition at 10 µM (CHEK2 (CHK2); 10 µM compound) of the same compound?
**A.** 15%

**Q.** And the water solubility (Water solubility)?
**A.** water soluble compound

**Q.** And the inhibition at 1 µM (AURKA (Aurora A))?
**A.** 1%

**Q.** What about the “concentrations able to mimic the effect of 2-O-Bn-InsP5” value (PC3) of the same compound?
**A.** 200 to 300 µM

**Q.** And the “number of surviving cells” value (PC3)?
**A.** no effect in PC3 at concentrations up to 50 μM

**Q.** What about the inhibition at 10 µM (CSNK2A2 (CK2α2); 10 µM compound) of the same compound?
**A.** 18%

**Q.** What about the inhibition at 10 µM (CHEK1 (CHK1); 10 µM compound) of the same compound?
**A.** 17%

**Q.** What about the inhibition at 10 µM (GSK3B (GSK3β); 10 µM compound) of the same compound?
**A.** 20%

**Q.** And the inhibition at 10 µM (PIK3CG (p110γ); 10 µM compound)?
**A.** 4%

**Q.** What about the inhibition at 10 µM (CDC42 BPA (MRCKA); 10 µM compound) of the same compound?
**A.** 0%

**Q.** And the inhibition at 10 µM (AKT3 (PKBγ); 10 µM compound)?
**A.** 10%

**Q.** And the inhibition at 10 µM (CSNK1A1 (CK1α1); 10 µM compound)?
**A.** 13%

**Q.** What about the inhibition at 10 µM (MAP2K1 (MEK1); 10 µM compound) of the same compound?
**A.** 7%

**Q.** What about the inhibition at 10 µM (PRKCA (PKCα); 10 µM compound) of the same compound?
**A.** 30%

**Q.** And the inhibition at 10 µM (PI4KB (PI4Kβ); 10 µM compound)?
**A.** 3%

**Q.** What about the inhibition at 10 µM (MAPK9 (JNK2); 10 µM compound) of the same compound?
**A.** 23%

**Q.** And the inhibition at 1 µM (AMPK A1/B1/G1)?
**A.** 4%

**Q.** What about the inhibition at 10 µM (ITK; 10 µM compound) of the same compound?
**A.** 6%

**Q.** And the inhibition at 10 µM (CDK5/p25; 10 µM compound)?
**A.** 13%

**Q.** And the inhibition at 10 µM (MAPK1 (ERK2); 10 µM compound)?
**A.** 8%

**Q.** And the inhibition at 10 µM (CDK1/cyclin B; 10 µM compound)?
**A.** 16%

**Q.** For `O=P(O)(O)OC1C(OCc2ccccc2)C(OP(=O)(O)O)C(OP(=O)(O)O)C(OP(=O)(O)O)C1OP(=O)(O)O` (centres unmarked) [2-O-Bn-InsP5, 2-O-benzyl-myo-inositol 1,3,4,5,6-pentakisphosphate], which inhibition at 1 µM (SRC; 1 µM compound) is on record?
**A.** 4%

**Q.** What about the inhibition at 1 µM (BRAF; 1 µM compound) of the same compound?
**A.** 5%

**Q.** And the inhibition at 1 µM (JAK1; 1 µM compound)?
**A.** -1%

**Q.** What about the inhibition at 1 µM (CHEK2 (CHK2); 1 µM compound) of the same compound?
**A.** 12%

**Q.** What about the water solubility (Water solubility) of the same compound?
**A.** water soluble compound

**Q.** And the inhibition at 1 µM (AURKA (Aurora A))?
**A.** 34%

**Q.** And the “number of surviving cells” value (PC3)?
**A.** Higher activity

**Q.** And the inhibition at 1 µM (CSNK2A2 (CK2α2); 1 µM compound)?
**A.** 2%

**Q.** And the inhibition at 1 µM (CHEK1 (CHK1); 1 µM compound)?
**A.** 15%

**Q.** What about the inhibition at 1 µM (GSK3B (GSK3β); 1 µM compound) of the same compound?
**A.** 11%

**Q.** And the inhibition at 1 µM (PIK3CG (p110γ); 1 µM compound)?
**A.** -41%

**Q.** And the inhibition at 1 µM (CDC42 BPA (MRCKA); 1 µM compound)?
**A.** 17%

**Q.** What about the inhibition at 1 µM (AKT3 (PKBγ); 1 µM compound) of the same compound?
**A.** 10%

**Q.** And the inhibition at 1 µM (CSNK1A1 (CK1α1); 1 µM compound)?
**A.** 0%

**Q.** What about the inhibition at 1 µM (MAP2K1 (MEK1); 1 µM compound) of the same compound?
**A.** 14%

**Q.** What about the inhibition at 1 µM (PRKCA (PKCα); 1 µM compound) of the same compound?
**A.** 21%

**Q.** What about the inhibition at 1 µM (PI4KB (PI4Kβ); 1 µM compound) of the same compound?
**A.** 0%

**Q.** What about the inhibition at 1 µM (MAPK9 (JNK2); 1 µM compound) of the same compound?
**A.** -1%

**Q.** What about the inhibition at 1 µM (AMPK A1/B1/G1) of the same compound?
**A.** 16%

**Q.** What about the inhibition at 1 µM (ITK; 1 µM compound) of the same compound?
**A.** -11%

**Q.** What about the inhibition at 1 µM (CDK5/p25; 1 µM compound) of the same compound?
**A.** 3%

**Q.** What about the inhibition at 1 µM (MAPK1 (ERK2); 1 µM compound) of the same compound?
**A.** 6%

**Q.** And the inhibition at 1 µM (CDK1/cyclin B; 1 µM compound)?
**A.** 9%
